Publication PMC10827914 (Cellular and Molecular Life Sciences: CMLS, 2024)
Structures can show the parent of a compound that is named as a salt.

What was measured:
[1] = molecular target: T1, recombinant human CD13 (rCD13) (Homo sapiens, UniProt P15144); assay: rCD13 enzyme inhibition assay, L-alanine 7-amido-4-methylcoumarin substrate; assay type: biochemical; details: rCD13 0.2 µg/mL, 60 mM Tris–HCl pH 7.4, 0.1 mM L-alanine-7-amido-4-methylcoumarin, 30 min, 37 °C
T1 construct: consisting of the CD13 extracellular domain expressed in HEK-293 cells; His-tag; purchased Sino Biological 10051-H08H; host or cells: HEK-293 cells
T1 sequence (P15144 33-967 limits assumed): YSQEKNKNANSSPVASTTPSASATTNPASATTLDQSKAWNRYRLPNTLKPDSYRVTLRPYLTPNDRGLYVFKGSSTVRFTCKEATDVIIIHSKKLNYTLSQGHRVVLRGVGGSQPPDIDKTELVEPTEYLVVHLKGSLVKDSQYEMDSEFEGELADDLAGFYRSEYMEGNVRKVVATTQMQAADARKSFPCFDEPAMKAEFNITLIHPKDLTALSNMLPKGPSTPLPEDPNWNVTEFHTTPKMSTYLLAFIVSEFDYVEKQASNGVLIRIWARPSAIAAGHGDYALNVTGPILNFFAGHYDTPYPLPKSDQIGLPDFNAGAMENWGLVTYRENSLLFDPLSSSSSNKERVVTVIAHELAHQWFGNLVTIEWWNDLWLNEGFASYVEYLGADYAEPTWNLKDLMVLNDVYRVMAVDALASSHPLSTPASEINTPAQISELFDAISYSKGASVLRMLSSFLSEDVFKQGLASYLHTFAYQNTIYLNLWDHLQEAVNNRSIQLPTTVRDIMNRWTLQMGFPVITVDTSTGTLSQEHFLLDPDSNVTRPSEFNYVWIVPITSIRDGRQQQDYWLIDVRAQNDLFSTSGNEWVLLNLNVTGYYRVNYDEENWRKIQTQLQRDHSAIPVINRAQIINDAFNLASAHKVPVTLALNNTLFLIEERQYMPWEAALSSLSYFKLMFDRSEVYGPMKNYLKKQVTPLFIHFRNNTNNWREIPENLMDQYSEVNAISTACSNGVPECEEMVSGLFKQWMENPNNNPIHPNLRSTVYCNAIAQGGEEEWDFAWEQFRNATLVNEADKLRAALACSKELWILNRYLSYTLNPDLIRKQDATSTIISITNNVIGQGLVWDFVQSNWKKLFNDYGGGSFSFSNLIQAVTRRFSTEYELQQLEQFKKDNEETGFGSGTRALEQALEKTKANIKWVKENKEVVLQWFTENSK
Protocol: (§1) Recombinant CD13 (rCD13) enzyme activity and inhibition assays were performed as described previously using L-alanine-p-nitroanilide or L-alanine 7-amido-4-methylcoumarin as substrates in 60 mM Tris–HCl, pH 7.4, or 60 mM potassium phosphate buffer, pH 7.4. Mixtures containing peptides at various concentrations, rCD13 (0.2 µg/mL), and L-alanine-p-nitroanilide substrate (0.5 mM) in 60 mM potassium phosphate buffer, pH 7.4 (total volume, 0.1 ml) were prepared and left to react for 30 min at 37 °C. The products were then analyzed using a plate reader (iMark Microplate Absorbance Reader; Bio-Rad). Alternatively, the assay was performed using 0.1 mM L-alanine 7-amido-4-methylcoumarin in 60 mM Tris–HCl, pH 7.4, as a substrate. Fluorescence intensity of methylcoumarin was measured on an Infinite 200 PRO plate reader (Tecan) using the following settings: excitation wavelength: 341 nm; emission wavelength: 441 nm; excitation bandwidth: 9; emission bandwidth: 20 nm; gain: 109 manual; number of flashes: 25; integration time: 20 µs; lag time: 0 µs; settle time: 0 ms.
(§2) The IC50 of each inhibitor was calculated by non-linear regression analysis of inhibition data using GraphPad Prism Software (GraphPad Software, Version 9.00, San Diego, CA). Steady-state enzyme kinetic analyses were performed using various concentrations of L-alanine-p-nitroanilide (0–1.5 mM) and VGCARRYCS peptide (0–900 nM). The initial velocities (Vo) were calculated from the slopes of the first 5 min of reaction. The enzyme inhibitory constant (Ki) was calculated using the competitive enzyme inhibition model in GraphPad Prism Software.
Fig. 2 G4 recognizes soluble forms of CD13, with higher affinity and selectivity than bestatin, and the membrane forms expressed on the surface of HUVEC cells. A Inhibitory effects of G4 and bestatin on the enzymatic activities of different aminopeptidases (rCD13, APA, and APB). Various amounts of G4 or bestatin were incubated with rCD13 (0.2 µg/mL in 60 mM Tris–HCl pH 7.4), APA (0.2 µg/mL in 60 mM Tris–HCl pH 7.4, 50 mM calcium chloride, 200 mM sodium chloride) or APB (0.2 µg/mL in 60 mM Tris–HCl pH 7.4, 100 mM potassium chloride) and the corresponding substrates at 0.1 mM (L-alanine-7-amido-4-methylcoumarin for rCD13, L-glutamic acid γ-(7-amido-4-methylcoumarin) for APA, and L-arginine-7-amido-4-methylcoumarin for APB). The mixtures were incubated for 30 min at 37 °C, and the cleavage of each substrate was monitored by measuring the fluorescence of methylcoumarin (λex 341 nm; λem 441 nm) using an Infinite 200 PRO plate reader (Tecan). Three independent experiments were performed for each enzyme. The results of one representative experiment for each enzyme are shown (mean ± SEM, duplicates). B Inhibitory effects of G4 and bestatin on soluble CD13 immunocaptured from human serum (sCD13) using microtiter plates coated with anti-CD13 mAb WM15. The microtiter plate was filled with a solution of mAb WM15 (5 μg/ml in DPBS) and incubated overnight at 4 °C. The plate was then washed with DPBS, blocked with 3% bovine serum albumin (BSA) in DPBS, and filled with human serum containing soluble CD13 (diluted 1:2 with DPBS containing 2% BSA). After washing with DPBS, mixtures of G4 or bestatin (0–100 µM in 60 mM Tris–HCl, pH 7.4) and L-alanine p-nitroanilide hydrochloride substrate (4.5 mM in 60 mM Tris–HCl, pH 7.4) were added and left to incubate at 37 °C for 2 h. Substrate cleavage by sCD13 dissociated from mAb WM15 was then monitored by measuring the absorbance at 405 nm in each well using a plate reader (Bio-Rad). The results of one experiment performed in triplicate are shown (mean ± SEM). C Effect of G4 on the binding of the anti-CD13 mAb WM15 to HUVEC. HUVEC were seeded at a density of 2 × 10^5 cells in 100 µL DPBS supplemented with 5% normal human serum (NHS) and incubated with a mixture of G4 peptide (0, 0.1, 1, and 10 µM) and mAb WM15 (0 or 0.13 nM) as indicated. […]

[2] = test system: recombinant human aminopeptidase B (APB); assay: Enzyme activity assay of recombinant APB; assay type: biochemical; details: APB 0.2 µg/mL, 60 mM Tris–HCl pH 7.4, 100 mM KCl, 0.1 mM L-arginine-7-amido-4-methylcoumarin, 30 min, 37 °C
Protocol: The effect of peptides on the enzymatic activity of APA and APB was evaluated using the method described previously with some modifications. Briefly, threefold serial dilution of peptides (ranging from 0 to 10 or 100 µM) were incubated with either APA (0.2 µg/mL in 60 mM Tris–HCl pH 7.4, 50 mM CaCl2, 200 mM NaCl) or APB (0.2 µg/mL in 60 mM Tris–HCl pH 7.4, 100 mM KCl) and relative substrates at 0.1 mM (L-glutamic acid γ-(7-amido-4-methylcoumarin) or L-arginine-7-amido-4-methylcoumarin, respectively) in 96-well bottom clear black polystyrene microtiter plates (100 µl/well). The mixture was incubated for 30 min at 37 °C in a humid box, and the cleavage of the substrate was correlated with aminopeptidase enzymatic activities by measuring the fluorescence of methylcoumarin at λex 341 nm and λem 441 nm with a plate reader (Infinite 200 PRO, Tecan). IC50 was calculated as reported above for CD13 activity.
Fig. 2 G4 recognizes soluble forms of CD13, with higher affinity and selectivity than bestatin, and the membrane forms expressed on the surface of HUVEC cells. […] The mixtures were incubated for 30 min at 37 °C, and the cleavage of each substrate was monitored by measuring the fluorescence of methylcoumarin (λex 341 nm; λem 441 nm) using an Infinite 200 PRO plate reader (Tecan). […] After incubation for 60 min at 4 °C, the cells were washed and analyzed by flow cytometry. […]

[3] = molecular target: T1, recombinant human CD13 (rCD13); assay: rCD13 enzyme inhibition assay, L-alanine-p-nitroanilide substrate; assay type: biochemical; details: Fig. 4B and 4E, one experiment in duplicate
Protocol: as §1, §2
A) VGCGRRYCSN and CSGIGSSGGC (control) peptides, at various concentrations, were mixed with rCD13 (0.2 µg/mL), L-alanine-p-nitroanilide substrate (0.5 mM), in 60 mM potassium phosphate buffer, pH 7.4. The mixtures were left to react for 30 min at 37° C; then the absorbance at 405 nm of each mixture was measured using an ELISA plate reader (Bio-Rad). The IC50 of each inhibitor was calculated by non-linear regression analysis of inhibition data using the GraphPad Prism Software (GraphPad Software, Version 9.00, San Diego, CA). The result of one experiment performed in duplicate is shown (mean ± SEM).

[4] = test system: membrane CD13 expressed by HUVEC; assay: Competitive binding of anti-CD13 mAb WM15 to HUVEC by flow cytometry; set-up: species or system human; details: Fig. 4C and 4D
Protocol: HUVEC were seeded in 96-well U-bottom polystyrene microtiter plates at a density of 2 × 10^5 cells in 100 µL DPBS supplemented with 5% normal human serum (NHS) and mixed with a mixture of peptide G4 ranging from 0 to 10 µM and mAb WM15 (0 or 0.13 nM). The chromogranin A429-439 peptide fragment (CgA429-439) was used instead of G4 as a control. After 1 h of incubation at 4 °C, the cells were washed and resuspended in 100 µL of DPBS containing 5% NHS and 1 µg/mL of FITC-labeled goat anti-mouse IgG secondary antibody. Cells were subsequently incubated for 1 h at 4 °C, washed, and analyzed by flow cytometry. All flow cytometry data were collected on a CytoFLEX S flow cytometer (Beckman Coulter) and analyzed using FlowJo software 10 (BD BioScience).
Fig. 2 G4 recognizes soluble forms of CD13, with higher affinity and selectivity than bestatin, and the membrane forms expressed on the surface of HUVEC cells. A Inhibitory effects of G4 and bestatin on the enzymatic activities of different aminopeptidases (rCD13, APA, and APB). Various amounts of G4 or bestatin were incubated with rCD13 (0.2 µg/mL in 60 mM Tris–HCl pH 7.4), APA (0.2 µg/mL in 60 mM Tris–HCl pH 7.4, 50 mM calcium chloride, 200 mM sodium chloride) or APB (0.2 µg/mL in 60 mM Tris–HCl pH 7.4, 100 mM potassium chloride) and the corresponding substrates at 0.1 mM (L-alanine-7-amido-4-methylcoumarin for rCD13, L-glutamic acid γ-(7-amido-4-methylcoumarin) for APA, and L-arginine-7-amido-4-methylcoumarin for APB). The mixtures were incubated for 30 min at 37 °C, and the cleavage of each substrate was monitored by measuring the fluorescence of methylcoumarin (λex 341 nm; λem 441 nm) using an Infinite 200 PRO plate reader (Tecan). Three independent experiments were performed for each enzyme. […] Substrate cleavage by sCD13 dissociated from mAb WM15 was then monitored by measuring the absorbance at 405 nm in each well using a plate reader (Bio-Rad). […] After incubation for 60 min at 4 °C, the cells were washed and analyzed by flow cytometry. Data are expressed as the percentage of counts vs. fluorescence intensity units […]

HUVEC = HUVEC cell adhesion assay on coated microtiter plates; assay type: cell-based, human; details: plates coated with 10 µg/mL, 4 × 10^5 HUVEC, 2.5 h, 37 °C, crystal violet, absorbance 540 nm
Protocol: The peptide VGCARRYCSGGSGGGSGK-biotin, with a biotin moiety linked to the ε-aminogroup of the Lys residue (ProteoGenix), was complexed with streptavidin (G4-streptavidin) or avidin (G4-avidin) by mixing it with a molar excess of streptavidin or avidin in DPBS (1:6 mol/mol), followed by incubation for 1 h at room temperature under mild stirring. To perform the cell adhesion assay, 96-well polyvinyl chloride microtiter plates were coated with G4-avidin or G4-streptavidin (10 µg/mL in DPBS, overnight, 4 °C). After blocking with 2% BSA in EBM-2 (45 min at room temperature), 4 × 10^5 HUVEC were seeded in Endothelial Cell Growth Basal Medium-2 (EBM-2, Cat. # 00190860, Lonza) and incubated for 2.5 h at 37 °C, 5% CO2. Unbound cells were removed by washing with EBM-2, and adherent cells were fixed with 3% paraformaldehyde and 2% sucrose in DPBS and stained with 0.5% crystal violet. The number of adherent cells was quantified by measuring the absorbance of the wells at 540 nm wavelength using a microplate reader.
Fig. 7 Adhesion of HUVEC cells to microtiter plates coated with G4-avidin or G4-streptavidin conjugates. Representative images of wells coated with 10 µg/mL of G4-avidin (A) or G4-streptavidin (B) complexes. Wells coated with avidin or streptavidin were used as negative controls. The absorbance of crystal violet-stained adherent cells is also shown. […]

Row | Compound | Inhibition of rCD13 enzymatic activity (in words) [1] | Inhibition of APB enzymatic activity (in words) [2] | Inhibition of rCD13 enzymatic activity (in words) [3] | Competition of mAb WM15 binding to HUVEC (in words) [4] | Endothelial cell adhesion to coated plates (in words) (HUVEC)
1 | CC(C)C[C@H](NC(=O)[C@@H](O)[C@H](N)Cc1ccccc1)C(=O)O [bestatin, Bestatin-hydrochloride] | inhibited both rCD13 and APB | inhibited both rCD13 and APB | – | – | –
2 | VGCARRYCSGGSGGGSGK-biotin [G4-avidin, …-biotin complexed with avidin] | – | – | could not inhibit the enzymatic activity of recombinant soluble CD13 | competed the binding of mAb WM15 to endothelial cells | promoted endothelial cell adhesion
